Reference: patent publication US20190330141A1, “Compositions With A Cooling Effect” (The Procter & Gamble Company, priority 2018, published 2019)
Structures can show the parent of a compound that is named as a salt. Where two headings read alike, the source gives them in different places.

Tests used:
human TRPM8 = molecular target: T1, human TRPM8 (Homo sapiens, UniProt Q7Z2W7); assay: TRPM8 Protocol-FLIPR Assay (intracellular Ca2+ in transfected HEK-293 cells); type: cell-based; conditions: for EC50 values compared with Comp 4: comparison with the EC50 value of Comp 4
T1 construct: expressed in transfected cells; host or cells: HEK-293
Description: To determine whether TRPM8 is activated, the intracellular calcium ion (Ca^2+) level was measured from transfected cells with the TRPM8 receptor sequence (SEQ ID NO: 1). HEK-293 (human embryonic kidney) cells stably transfected with human TRPM8 were grown in 15 mL growth medium (high glucose DMEM (Dulbecco's Modification of Eagle's Medium) supplemented with 10% FBS (fetal bovine serum), 100 μg/mL penicillin/streptomycin, 5 μg/mL blasticindin, and 100 μg/mL zeocin) in a 75 cm^2 flask for 3 days at 37° C. in a mammalian cell culture incubator (Forma Scientific Model 3110, Marietta, Ohio) set at 5% CO2. Cells were detached with addition of 2 mL of trypsin-EDTA buffer (GIBCO® 25200, Invitrogen, Grand Island, N.Y.) for about 2-3 min. Trypsin was inactivated by addition of 8 mL growth medium. Cells were transferred to a 50 mL tube and centrifuged at 850 rpm for 3 minutes to remove medium. After centrifugation, a pellet of cells was formed in the bottom of the tube separating them from the supernatant solution. The supernatant was discarded and the cell pellet was suspended in 1 mL of fresh growth medium to which 5 μL (12.5 μg) of Fluo-4 AM (Molecular Probes, Inc., Eugene, Oreg.) calcium indicator was added and incubated for 30 min with gentle shaking. Fluo-4 AM is a fluorescent dye used for quantifying cellular Ca^2+ concentrations in the 100 nM to 1 μM range. At the end of 30 minutes, 45 mL of assay buffer (1×HBSS (Hank's Balanced Salt Solution), 20 mM HEPES (4-(2-Hydroxyethyl)-1-piperazineethanesulfonic acid)) was added to wash cells and the resulting mixture was then centrifuged at 850 rpm for 3 minutes at 20° C. to remove excess buffer and Fluo-4 AM calcium indicator.
The pelleted cells were re-suspended in 10 mL assay buffer and 90 μL aliquots (50,000 cells) per well delivered to a 96-well assay plate containing 10 μL of test compounds (1 mM in assay buffer, final concentration 100 μM) or buffer control and incubated at room temperature for 30 minutes. After 30 minutes, a plate (Falcon 353219, Corning Corning N.Y.) was placed into a fluorometric imaging plate reader (FLIPR384 from Molecular Devices, Sunnyvale, Calif.) and basal fluorescence recorded (excitation wave length 488 nm and emission wave length 510 nm). Then 20 μL of 100 mM of TRPM8 agonist WS5 coolant in the assay buffer was added and fluorescence recorded. For determining the direct effect of test compounds on TRPM8, fluorescence was measured immediately after addition of each compound. Additional discussion of the FLIPR method can be found in Smart et al., Characterization using FLIPR of human vanilloid VR1 receptor pharmacology, European Journal of Pharmacology 417, 51-58 (2001) and Liu et al., Development and validation of a platelet calcium flux assay using a fluorescent imaging plate reader, Analytical Biochemistry 357, 216-224 (2006).
The magnitude of the fluorescence of the active-treated cells was compared to the magnitude of the fluorescence from a benchmark agonist (WS-5), as described above. The percentage of fluorescence as a function of active dose was plotted and a sigmoidal curve was generated. Curve fitting from this dose-response curve yielded the value for TRPM8 EC50 in μM found in TABLE 8.
TRPM8 activation was determined by measuring intracellular calcium ion (Ca^2+) level from transfected cells with the TRPM8 receptor gene, as described in EXAMPLE 12, the results of which are shown in TABLE 8. EC50 values are provided in column 3 of TABLE 8, which measured the concentration of activating compound needed to […]. […]

[1] = concentration where the cooling effect could be clearly recognized; cited from earlier work
[2] = HEK-293 cells stably transfected with human TRPM8, fluorescence compared to benchmark agonist WS-5, dose-response curve fit, read-out: TRPM8 Activity EC50
[3] = less than about 1 μM, 0.6 μM, or the EC50 value of Comp 3, read-out: EC50 values

T1 sequence (Q7Z2W7 whole entry): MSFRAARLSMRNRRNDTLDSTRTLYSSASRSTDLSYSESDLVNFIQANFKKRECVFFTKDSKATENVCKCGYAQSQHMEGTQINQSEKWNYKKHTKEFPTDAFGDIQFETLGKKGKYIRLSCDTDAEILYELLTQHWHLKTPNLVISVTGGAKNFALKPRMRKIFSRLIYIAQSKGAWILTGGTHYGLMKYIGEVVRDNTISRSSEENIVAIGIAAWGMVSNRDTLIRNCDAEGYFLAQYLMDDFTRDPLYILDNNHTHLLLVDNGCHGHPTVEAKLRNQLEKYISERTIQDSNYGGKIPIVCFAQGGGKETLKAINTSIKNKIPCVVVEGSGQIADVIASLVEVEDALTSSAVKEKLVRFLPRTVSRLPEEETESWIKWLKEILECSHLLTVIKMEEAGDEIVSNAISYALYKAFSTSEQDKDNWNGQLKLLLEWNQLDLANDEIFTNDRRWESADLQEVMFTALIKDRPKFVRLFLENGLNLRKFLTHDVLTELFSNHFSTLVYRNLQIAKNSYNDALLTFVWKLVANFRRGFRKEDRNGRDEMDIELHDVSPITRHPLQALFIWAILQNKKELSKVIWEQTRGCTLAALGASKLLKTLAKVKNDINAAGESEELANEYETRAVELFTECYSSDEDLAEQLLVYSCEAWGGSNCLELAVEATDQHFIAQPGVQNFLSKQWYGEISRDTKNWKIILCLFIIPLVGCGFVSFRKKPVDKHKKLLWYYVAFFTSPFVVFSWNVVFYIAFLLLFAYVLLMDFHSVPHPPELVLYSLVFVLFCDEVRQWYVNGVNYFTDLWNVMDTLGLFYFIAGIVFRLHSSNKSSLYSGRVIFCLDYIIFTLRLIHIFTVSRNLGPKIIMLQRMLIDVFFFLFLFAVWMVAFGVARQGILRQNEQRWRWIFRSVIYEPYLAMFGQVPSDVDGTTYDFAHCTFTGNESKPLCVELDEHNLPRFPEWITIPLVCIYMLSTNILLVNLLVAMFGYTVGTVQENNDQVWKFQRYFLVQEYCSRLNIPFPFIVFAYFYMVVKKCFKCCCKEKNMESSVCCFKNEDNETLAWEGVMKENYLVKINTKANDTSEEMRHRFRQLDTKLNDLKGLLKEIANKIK

Compound: N[C@H](CNC(=O)c1ccccc1)c1ccccc1 [Comp 1, reference compound]
- EC50 (human TRPM8; [2]): > 10000 nM

Compound: Cc1ccc(C(C)C)c(OC(=O)C[C@@H](N)c2ccccc2)c1 [Comp 2, reference compound]
- EC50 (human TRPM8; [2]): 12000 nM

Compound: CC(C)[C@@H]1CC[C@@H](C)C[C@H]1C(=O)Nc1ccc(CC#N)cc1 [Comp 3, reference compound]
- EC50 (human TRPM8; [2]): 600 nM

Compound: CC(C)[C@@H]1CC[C@@H](C)C[C@H]1C(=O)NC[C@@H](NC(=O)[C@H](C)N)c1ccccc1 [Comp 4, reference compound]
- EC50 (human TRPM8; [2]): 9 nM

Compound: CC(C)[C@@H]1CC[C@@H](C)C[C@@H]1O [Compound 1-neomenthol, 1-neomenthol]
- cooling threshold [1]: about 3,000 ppb

Compound: NCC(=O)N[C@H](CNC(=O)c1ccccc1)c1ccccc1 [Compound 1a, (S)-2-((2-benzamido-1-phenylethyl)amino)-2-oxoethan-1-aminium chloride]
- EC50 (human TRPM8; [2]): 655 nM
- EC50 (human TRPM8; [3]): < 1000 nM

Compound: C[C@@H](N)C(=O)N[C@H](CNC(=O)c1ccccc1)c1ccccc1 [Compound 1c, (R)-1-(((S)-2-benzamido-1-phenylethyl)amino)-1-oxopropan-2-aminium chloride]
- EC50 (human TRPM8; [2]): 582 nM
- EC50 (human TRPM8; [3]): < 1000 nM

Compound: C[C@@H](N)C(=O)N[C@H](CNC(=O)c1cccnc1)c1ccccc1 [Compound 2c, (R)-1-(((S)-2-(nicotinamido)-1-phenylethyl)amino)-1-oxopropan-2-aminium chloride]
- EC50 (human TRPM8; [2]): 28000 nM

Compound: CC(C)=CCC/C(C)=C/C(=O)NC[C@@H](NC(=O)CN)c1ccccc1 [Compound 4a, (S,E)-2-((2-(3,7-dimethylocta-2,6-dienamido)-1-phenylethyl)amino-2-oxoethan-1-aminium chloride]
- EC50 (human TRPM8; [2]): 1200 nM

Compound: CC(C)=CCC/C(C)=C/C(=O)NC[C@@H](NC(=O)[C@@H](C)N)c1ccccc1 [Compound 4b, (R)-1-(((S)-2-((E)-3,7-dimethylocta-2,6-dienamido)-1-phenylethyl)amino)-1-oxopropan-2-aminium chloride]
- EC50 (human TRPM8; [2]): 1450 nM

Compound: Cc1ccc(C(C)C)c(C(=O)NC[C@@H](NC(=O)CN)c2ccccc2)c1.Cl [Compound 6a, (S)-2-((2-(2-isopropyl-5-methylbenzamido)-1-phenylethyl)amino-2-oxoethan-1-aminium chloride]
- EC50 (human TRPM8; [2]): 1.9 nM
- EC50 (human TRPM8; [3]): < 1000 nM

Compound: Cc1ccc(C(C)C)c(C(=O)NC[C@@H](NC(=O)CN)c2ccccc2)c1.Cl [Compound 6a]
- EC50 values compared with Comp 4 (human TRPM8): about the same or less than the EC50 value of Comp 4

Compound: Cc1ccc(C(C)C)c(C(=O)NC[C@@H](N)c2ccccc2)c1 [Compound 6b, (S)-2-(2-isopropyl-5-methylbenzamido)-1-phenylethan-1-aminium chloride]
- EC50 (human TRPM8; [2]): 155 nM
- EC50 (human TRPM8; [3]): < 1000 nM

Compound: Cc1ccc(C(C)C)c(C(=O)NC[C@@H](NC(=O)[C@@H](C)N)c2ccccc2)c1.Cl [Compound 6c, (R)-1-(((S)-2-(2-isopropyl-5-methylbenzamido)-1-phenylethyl)amino)-1-oxopropan-2-aminium chloride]
- EC50 (human TRPM8; [2]): 3.2 nM
- EC50 values compared with Comp 4 (human TRPM8): about the same or less than the EC50 value of Comp 4
- EC50 (human TRPM8; [3]): < 1000 nM

Compound: Cc1ccc(C(C)C)c(C(=O)NC[C@@H](NC(=O)[C@H](C)N)c2ccccc2)c1.Cl [Compound 6d, (S)-1-(((S)-2-(2-isopropyl-5-methylbenzamido)-1-phenylethyl)amino)-1-oxopropan-2-aminium chloride]
- EC50 (human TRPM8; [2]): 6.6 nM
- EC50 values compared with Comp 4 (human TRPM8): about the same or less than the EC50 value of Comp 4
- EC50 (human TRPM8; [3]): < 1000 nM

Compound: Cc1ccc(C(C)C)c(OC(=O)C[C@@H](NC(=O)CN)c2ccccc2)c1 [Compound 7a, (R)-2-((3-(2-isopropyl-5-methylphenoxy)-3-oxo-1-phenylpropyl)amino-2-oxoethan-1-aminium chloride]
- EC50 (human TRPM8; [2]): 230 nM
- EC50 (human TRPM8; [3]): < 1000 nM

Compound: Cc1ccc(C(C)C)c(OC(=O)C[C@@H](NC(=O)[C@@H](C)N)c2ccccc2)c1 [Compound 7b, (R)-1-(((R)-3-(2-isopropyl-5-methylphenoxy)-3-oxo-1-phenylpropyl)amino)-1-oxopropan-2-aminium chloride]
- EC50 (human TRPM8; [2]): 60 nM
- EC50 (human TRPM8; [3]): < 1000 nM

Compound: CC(C)C(C)(C(=O)OC[C@@H](NC(=O)[C@H](C)N)c1ccccc1)C(C)C [Compound 8a, (S)-2-((S)-2-aminopropanamido)-2-phenylethyl 2-isopropyl-2,3-dimethylbutanoate hydrochloride]
- EC50 (human TRPM8; [2]): 415 nM
- EC50 (human TRPM8; [3]): < 1000 nM

Compound: CC(C)C(C)(C(=O)OC[C@@H](NC(=O)[C@@H](C)N)c1ccccc1)C(C)C [Compound 8b, (S)-2-((R)-2-aminopropanamido)-2-phenylethyl 2-isopropyl-2,3-dimethylbutanoate hydrochloride]
- EC50 (human TRPM8; [2]): 57 nM
- EC50 (human TRPM8; [3]): < 1000 nM

Compound: CC(C)C(C)(C(=O)NC[C@@H](OC(=O)CN)c1ccccc1)C(C)C.Cl [Compound 10a, (S)-2-(2-isopropyl-2,3-dimethylbutanamido)-1-phenylethyl glycinate hydrochloride]
- EC50 (human TRPM8; [2]): 7.85 nM
- EC50 values compared with Comp 4 (human TRPM8): about the same or less than the EC50 value of Comp 4
- EC50 (human TRPM8; [3]): < 1000 nM

Compound: NCC(=O)O[C@H](CNC(=O)C12CC3CC(CC(C3)C1)C2)c1ccccc1 [Compound 11a, (S)-2-((3S,5S,7S)-adamantane-1-carboxamido)-1-phenylethyl glycinate hydrochloride]
- EC50 (human TRPM8; [2]): 17.2 nM
- EC50 (human TRPM8; [3]): < 1000 nM

Compound: CC(C)[C@@H]1CC[C@@H](C)C[C@H]1O [L-menthol]
- cooling threshold [1]: about 800 ppb

Compound: CC(C)[C@@H]1CC[C@@H](C)C[C@@H]1O [d-neomenthol]
- cooling threshold [1]: about 25,000 ppb
